System: OVCAR-5 complex spheroids with HUVEC/MSC, viability, % test/control
Experiment: Anticancer human tumor OVCAR-5 cell line growth inhibition [AhR];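 also: spheroids exposed to compounds for 7 days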;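 as to viability, T/C: 100% = DMSO vehicle control wells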
Settings: for IC50: curve of first compound; for viability, T/C: stronger effect = lower value
Method in brief: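 Spheroids combined tumor cells with HUVEC endothelial cells and human MSCs as stroma. AhR antagonists were paired with standard or investigational drugs, each dosed in half-log steps down from near clinical Cmax, or from 10 microM where Cmax was unknown.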

[1] = second compound 0.1 µM, first compound 0.0316 µM
[2] = second compound 0.1 µM, first compound 0.1 µM
[3] = second compound 0.1 µM, first compound 0.316 µM
[4] = second compound 0.1 µM, first compound 1 µM
[5] = second compound 0.1 µM, first compound 3.16 µM
[6] = second compound 0.1 µM, first compound 10 µM
[7] = second compound 0.316 µM, first compound 0.0316 µM
[8] = second compound 0.316 µM, first compound 0.1 µM
[9] = second compound 0.316 µM, first compound 0.316 µM
[10] = second compound 0.316 µM, first compound 1 µM
[11] = second compound 0.316 µM, first compound 3.16 µM
[12] = second compound 0.316 µM, first compound 10 µM
[13] = second compound 1 µM, first compound 0.0316 µM
[14] = second compound 1 µM, first compound 0.1 µM
[15] = second compound 1 µM, first compound 0.316 µM
[16] = second compound 1 µM, first compound 1 µM
[17] = second compound 1 µM, first compound 3.16 µM
[18] = second compound 1 µM, first compound 10 µM
[19] = second compound 3.16 µM, first compound 0.0316 µM
[20] = second compound 3.16 µM, first compound 0.1 µM
[21] = second compound 3.16 µM, first compound 0.316 µM
[22] = second compound 3.16 µM, first compound 1 µM
[23] = second compound 3.16 µM, first compound 3.16 µM
[24] = second compound 3.16 µM, first compound 10 µM
[25] = second compound 10 µM, first compound 0.0316 µM
[26] = second compound 10 µM, first compound 0.1 µM
[27] = second compound 10 µM, first compound 0.316 µM
[28] = second compound 10 µM, first compound 1 µM
[29] = second compound 10 µM, first compound 3.16 µM
[30] = second compound 10 µM, first compound 10 µM
[31] = second compound 0.1 µM, first compound 0.00949 µM
[32] = second compound 0.1 µM, first compound 0.03 µM
[33] = second compound 0.1 µM, first compound 0.0949 µM
[34] = second compound 0.1 µM, first compound 0.3 µM
[35] = second compound 0.1 µM, first compound 0.949 µM
[36] = second compound 0.1 µM, first compound 3 µM
[37] = second compound 0.316 µM, first compound 0.00949 µM
[38] = second compound 0.316 µM, first compound 0.03 µM
[39] = second compound 0.316 µM, first compound 0.0949 µM
[40] = second compound 0.316 µM, first compound 0.3 µM
[41] = second compound 0.316 µM, first compound 0.949 µM
[42] = second compound 0.316 µM, first compound 3 µM
[43] = second compound 1 µM, first compound 0.00949 µM
[44] = second compound 1 µM, first compound 0.03 µM
[45] = second compound 1 µM, first compound 0.0949 µM
[46] = second compound 1 µM, first compound 0.3 µM
[47] = second compound 1 µM, first compound 0.949 µM
[48] = second compound 1 µM, first compound 3 µM
[49] = second compound 3.16 µM, first compound 0.00949 µM
[50] = second compound 3.16 µM, first compound 0.03 µM
[51] = second compound 3.16 µM, first compound 0.0949 µM
[52] = second compound 3.16 µM, first compound 0.3 µM
[53] = second compound 3.16 µM, first compound 0.949 µM
[54] = second compound 3.16 µM, first compound 3 µM
[55] = second compound 10 µM, first compound 0.00949 µM
[56] = second compound 10 µM, first compound 0.03 µM
[57] = second compound 10 µM, first compound 0.0949 µM
[58] = second compound 10 µM, first compound 0.3 µM
[59] = second compound 10 µM, first compound 0.949 µM
[60] = second compound 10 µM, first compound 3 µM

Compound `CC1(C)CCC(CN2CCN(c3ccc(C(=O)NS(=O)(=O)c4ccc(NCC5CCOCC5)c([N+](=O)[O-])c4)c(Oc4cnc5[nH]ccc5c4)c3)CC2)=C(c2ccc(Cl)cc2)C1` + Cc1ccccc1N=Nc1ccc(NC(=O)c2ccnn2C)c(C)c1 has an IC50 (second compound 0.1 µM) greater than 10 µM, an IC50 (second compound 0.316 µM) greater than 10 µM and an IC50 (second compound 1 µM) greater than 10 µM. For the same compound, the IC50 (second compound 3.16 µM) was greater than 10 µM, the IC50 (second compound 10 µM) was greater than 10 µM and the viability, T/C [1] was 102%. The viability, T/C [2] was 101%, the viability, T/C [3] was 102% and the viability, T/C [4] was 95.7%. For the same compound, the viability, T/C [5] was 99.2%, the viability, T/C [6] was 52.7% and the viability, T/C [7] was 102%. It also gave a viability, T/C [8] of 106%, a viability, T/C [9] of 106% and a viability, T/C [10] of 103%. For the same compound, the viability, T/C [11] was 105%, the viability, T/C [12] was 53% and the viability, T/C [13] was 102%. For the same compound, the viability, T/C [14] was 113%, the viability, T/C [15] was 107% and the viability, T/C [16] was 112%. For the same compound, the viability, T/C [17] was 104%, the viability, T/C [18] was 56.9% and the viability, T/C [19] was 103%. For the same compound, the viability, T/C [20] was 115%, the viability, T/C [21] was 108% and the viability, T/C [22] was 112%. The viability, T/C [23] was 109%, the viability, T/C [24] was 54.2% and the viability, T/C [25] was 109%. The viability, T/C [26] was 107%, the viability, T/C [27] was 105% and the viability, T/C [28] was 108%. It also gave a viability, T/C [29] of 105% and a viability, T/C [30] of 57.3%.

`CC1COCCN1c1cc(C2(S(C)(=N)=O)CC2)nc(-c2ccnc3[nH]ccc23)n1` (stereo not given) + Cc1ccccc1N=Nc1ccc(NC(=O)c2ccnn2C)c(C)c1 was tested, and the IC50 (second compound 0.1 µM) was 7.02 µM, the IC50 (second compound 0.316 µM) was 7.54 µM and the IC50 (second compound 1 µM) was 9.32 µM. The IC50 (second compound 3.16 µM) was 9.73 µM, the IC50 (second compound 10 µM) was greater than 10 µM and the viability, T/C [1] was 107%. For the same compound, the viability, T/C [2] was 108%, the viability, T/C [3] was 105% and the viability, T/C [4] was 99.7%. The viability, T/C [5] was 74.8%, the viability, T/C [6] was 38.9% and the viability, T/C [7] was 111%. It also gave a viability, T/C [8] of 111%, a viability, T/C [9] of 108% and a viability, T/C [10] of 100%. The viability, T/C [11] was 78.9%, the viability, T/C [12] was 40.6% and the viability, T/C [13] was 114%. It also gave a viability, T/C [14] of 115%, a viability, T/C [15] of 115% and a viability, T/C [16] of 105%. It also gave a viability, T/C [17] of 83.3%, a viability, T/C [18] of 47.8% and a viability, T/C [19] of 111%. It also gave a viability, T/C [20] of 121%, a viability, T/C [21] of 116% and a viability, T/C [22] of 106%. It also gave a viability, T/C [23] of 85.9%, a viability, T/C [24] of 49% and a viability, T/C [25] of 107%. For the same compound, the viability, T/C [26] was 110%, the viability, T/C [27] was 111% and the viability, T/C [28] was 105%. The viability, T/C [29] was 85.4% and the viability, T/C [30] was 50.8%.

In the case of `CCN(c1cc(-c2ccc(CN3CCOCC3)cc2)cc(C(=O)NCc2c(C)cc(C)[nH]c2=O)c1C)C1CCOCC1` + Cc1ccccc1N=Nc1ccc(NC(=O)c2ccnn2C)c(C)c1, the IC50 (second compound 0.1 µM) is reported as greater than 3 µM, the IC50 (second compound 0.316 µM) is reported as greater than 3 µM and the IC50 (second compound 1 µM) is reported as greater than 3 µM. For the same compound, the IC50 (second compound 3.16 µM) was greater than 3 µM, the IC50 (second compound 10 µM) was greater than 3 µM and the viability, T/C [31] was 105%. For the same compound, the viability, T/C [32] was 106%, the viability, T/C [33] was 102% and the viability, T/C [34] was 101%. The viability, T/C [35] was 95%, the viability, T/C [36] was 101% and the viability, T/C [37] was 107%. It also gave a viability, T/C [38] of 109%, a viability, T/C [39] of 107% and a viability, T/C [40] of 102%. For the same compound, the viability, T/C [41] was 102%, the viability, T/C [42] was 103% and the viability, T/C [43] was 112%. It also gave a viability, T/C [44] of 110%, a viability, T/C [45] of 111% and a viability, T/C [46] of 115%. It also gave a viability, T/C [47] of 107%, a viability, T/C [48] of 110% and a viability, T/C [49] of 115%. The viability, T/C [50] was 114%, the viability, T/C [51] was 115% and the viability, T/C [52] was 109%. The viability, T/C [53] was 109%, the viability, T/C [54] was 112% and the viability, T/C [55] was 106%. For the same compound, the viability, T/C [56] was 103%, the viability, T/C [57] was 104% and the viability, T/C [58] was 105%. It also gave a viability, T/C [59] of 99.9% and a viability, T/C [60] of 98.2%.

Work on `Nc1ncn(C2CC(O)C(CO)S2)c(=O)n1` (stereo not given) + Cc1ccccc1N=Nc1ccc(NC(=O)c2ccnn2C)c(C)c1 yielded an IC50 (second compound 0.1 µM) greater than 0.3 µM, an IC50 (second compound 0.316 µM) greater than 0.3 µM and an IC50 (second compound 1 µM) greater than 0.3 µM. For the same compound, the IC50 (second compound 3.16 µM) was greater than 0.3 µM, the IC50 (second compound 10 µM) was greater than 0.3 µM and the viability, T/C (second compound 0.1 µM, first compound 0.000949 µM) was 105%. It also gave a viability, T/C (second compound 0.1 µM, first compound 0.003 µM) of 108%, a viability, T/C [31] of 105% and a viability, T/C [32] of 101%. The viability, T/C [33] was 87.4%, the viability, T/C [34] was 79% and the viability, T/C (second compound 0.316 µM, first compound 0.000949 µM) was 113%. The viability, T/C (second compound 0.316 µM, first compound 0.003 µM) was 109%, the viability, T/C [37] was 112% and the viability, T/C [38] was 106%. For the same compound, the viability, T/C [39] was 86.5%, the viability, T/C [40] was 77.8% and the viability, T/C (second compound 1 µM, first compound 0.000949 µM) was 114%. It also gave a viability, T/C (second compound 1 µM, first compound 0.003 µM) of 115%, a viability, T/C [43] of 113% and a viability, T/C [44] of 108%. For the same compound, the viability, T/C [45] was 95%, the viability, T/C [46] was 82.5% and the viability, T/C (second compound 3.16 µM, first compound 0.000949 µM) was 112%. The viability, T/C (second compound 3.16 µM, first compound 0.003 µM) was 112%, the viability, T/C [49] was 114% and the viability, T/C [50] was 110%. The viability, T/C [51] was 95.6%, the viability, T/C [52] was 80% and the viability, T/C (second compound 10 µM, first compound 0.000949 µM) was 107%. The viability, T/C (second compound 10 µM, first compound 0.003 µM) was 111%, the viability, T/C [55] was 108% and the viability, T/C [56] was 108%. For the same compound, the viability, T/C [57] was 89.2% and the viability, T/C [58] was 78.8%.

`O=C(C=Cn1cnc(-c2cc(C(F)(F)F)cc(C(F)(F)F)c2)n1)NNc1cnccn1` + Cc1ccccc1N=Nc1ccc(NC(=O)c2ccnn2C)c(C)c1 showed an IC50 (second compound 0.1 µM) of 1.75 µM, an IC50 (second compound 0.316 µM) of 2.35 µM and an IC50 (second compound 1 µM) of 2.83 µM. For the same compound, the IC50 (second compound 3.16 µM) was 2.12 µM, the IC50 (second compound 10 µM) was 1.64 µM and the viability, T/C [31] was 109%. It also gave a viability, T/C [32] of 113%, a viability, T/C [33] of 102% and a viability, T/C [34] of 83.4%. It also gave a viability, T/C [35] of 59.2%, a viability, T/C [36] of 42.2% and a viability, T/C [37] of 115%. For the same compound, the viability, T/C [38] was 109%, the viability, T/C [39] was 100% and the viability, T/C [40] was 82.4%. For the same compound, the viability, T/C [41] was 59.6%, the viability, T/C [42] was 47.5% and the viability, T/C [43] was 114%. For the same compound, the viability, T/C [44] was 116%, the viability, T/C [45] was 106% and the viability, T/C [46] was 90%. It also gave a viability, T/C [47] of 64.6%, a viability, T/C [48] of 49.2% and a viability, T/C [49] of 114%. It also gave a viability, T/C [50] of 118%, a viability, T/C [51] of 113% and a viability, T/C [52] of 90.8%. It also gave a viability, T/C [53] of 66.7%, a viability, T/C [54] of 43% and a viability, T/C [55] of 108%. It also gave a viability, T/C [56] of 111%, a viability, T/C [57] of 108% and a viability, T/C [58] of 89.3%. The viability, T/C [59] was 63% and the viability, T/C [60] was 36.4%.
